According to US20090215752A1, “Compounds, preparation and therapeutic use thereof” (priority 2005, published 2009):
Where two headings read alike, the source gives them in different places.

How the values were obtained:
5-HT transporter = target: T1, 5-HT transporter (Homo sapiens, UniProt P31645); assay: Serotonergic transporter binding ([3H]imipramine); conditions: [3H]imipramine 2 nM, HEK-293 recombinant, read-out: percentage inhibition at 10 μM of control specific binding to the serotonergic transporter
T1 construct: expressed in transfected cells; host or cells: HEK-293
Protocol: The serotonergic 5-HT transporter was isolated from human recombinant HEK-293 cells according to the method described by Tatsumi et al. (1997), Pharmacological profile of antidepressants and related compounds at human monoamine transporters, Eur. J. Pharmacol., 340: 249-258.
Serotonergic transporter binding was determined by a radioligand method using tritium-labelled imipramine (2 nM) as substrate (Tatsumi et al., 1999). Ligand radioactivity was determined by liquid scintillation counting. Ligand incubations were carried out for thirty minutes at 22° C. The experiment was conducted in duplicate.
The specific ligand binding to the serotonergic transporter was defined as the difference between the total binding and the non specific binding determined in presence of an excess of unlabelled ligand. The results obtained are presented in Table 3 hereinbelow and are expressed as percent of control specific binding and as a percent inhibition of control specific binding obtained in presence of 10 μM of substance.

PDE2 = target: T2, PDE2 (Homo sapiens, UniProt O00408); assay: Inhibition of PDE2 (radioenzymatic phosphodiesterase assay); assay type: biochemical; conditions: for inhibition at 10 µM: 10 μM compound, 1 μM cyclic AMP
T2 construct: PDE2 was isolated from human platelets, provided by Etablissement Français du Sang-Alsace; tissue Etablissement Français du Sang-Alsace; host or cells: human platelets
Protocol: (§1) 2.1.1. Isolation of Phosphodiesterases from Smooth Muscle A 3 g segment of bovine aortic media cut into pieces with scissors was homogenized with an ultra-turrax then a potter glass/glass homogenizer in 7 volumes by weight of buffer A containing a protease inhibitor cocktail (20 mM Tris-HCl, 0.25 M saccharose, 2 mM magnesium acetate, 1 mM dithiothreitol, 5 mM EGTA, 2000 U/ml aprotinin, 10 mg/l leupeptin and 10 mg/l soya trypsic inhibitor). The homogenizate was centrifuged at 105,000 g for 1 hour. The supernatant was loaded on a DEAE-Sephacel column (15×1.6 cm) pre-equilibrated with buffer B (buffer A without the saccharose, EGTA and protease inhibitors). The column was washed until there was no detectable absorption at 280 nm, then eluted with a linear gradient of NaCl (0-0.5 M) in buffer B. 3-ml fractions were collected and enzyme activity was determined under the conditions described hereinbelow to localize the different enzymes PDE1, PDE3, PDE4 and PDE5 which were aliquoted and frozen at −80° C. (Lugnier et al., Biochem. Phamacol., 1986, 35: 1746-1751). PDE2 was isolated from human platelets, provided by Etablissement Français du Sang-Alsace, according to Kameni Tcheudji J F et al., (J. Mol. Biol. 2001; 310: 181-791), and stored until use at −80° C. in small aliquots.
(§2) Cyclic nucleotide phosphodiesterase activity was determined by a radioenzymatic method using tritium-labelled cyclic GMP or AMP (1 μM) as substrate (Lugnier et al., 1986). ^3H-labelled adenosine or guanosine monophosphate formed by hydrolysis of the radiolabelled cyclic nucleotide was then converted to ^3H-labelled adenosine or guanosine in a second reaction with […] in excess. The nucleoside formed was separated from the nucleotides by anion exchange chromatography. Nucleoside radioactivity was determined by liquid scintillation counting. Enzymatic incubations were carried out under conditions allowing no more than 15% hydrolysis of the substrate; each point was performed in duplicate.
The concentration of substance which inhibits enzymatic activity by 50% (IC50) at 1 μM cyclic AMP was calculated by nonlinear regression from the experimental values of hydrolysis rate (Prism, GraphPad).

PDE4 = assay: Selectivity: inhibition of PDE4 (radioenzymatic assay); assay type: biochemical, bovine; conditions: Table 2; 10 μM compound
Protocol: as §1, §2
(§3) The activity of the compounds was evaluated on other phosphodiesterase isoforms, particularly basal state or calmodulin-activated PDE1 from vascular smooth muscle, PDE3, PDE4 and PDE5 from vascular smooth muscle. The results obtained are presented in Tables 1 and 2 hereinbelow and are expressed as the percentage inhibition of enzymatic activity produced by […] of the test compound.

σ receptors = assay: Isolated organ bioassay, field-stimulated vas deferens: test for antagonist activity; set-up: species or system guinea pig; conditions: for Response to (+)SKF-10,047 (1.0 10^−4 M) in the presence of the compound: mean, n=2
Protocol: Segments of guinea pig vas deferens were suspended in 20-ml organ baths containing an oxygenated (95% O2 and 5% CO2) and pre-warmed (37° C.) physiological salt solution of the following composition (in mM): NaCl 118.0, KCl 4.7, MgSO4 1.2, CaCl2 2.5, KH2PO4 1.2, NaHCO3 25.0 and glucose 11.0 (pH 7.4). Yohimbine (1 μM), (−) sulpiride (1 μM), atropine (1 μM) and naloxone (1 μM) were also present throughout the experiments to block the α2-adrenergic, dopamine D2, muscarinic and opioid receptors, respectively. The tissues were connected to force transducers for isometric tension recordings. They were stretched to a resting tension of 0.5 g, allowed to equilibrate for at least 30 min during which time they were washed repeatedly and the tension readjusted. Thereafter, they were stimulated electrically using a constant current stimulator.
The tissues were exposed to a submaximal concentration of the reference agonist (+) SKF-10047 (100 μM) to obtain a control response. After stabilization of the (+) SKF-10047-induced response, increasing concentrations of substance or the reference antagonist rimcazole were added cumulatively. Each concentration was left in contact with the tissues until a stable response was obtained or for a maximum of 15 min. If it occurred, an inhibition of the (+) SKF-10047-induced increase in twitch contraction amplitude by substance indicated an antagonist activity at the σ receptors.
The parameter measured was the maximum change in the twitch contraction amplitude induced by each compound concentration. The results are expressed as a percent variation of the control twitch contraction amplitude (mean values). The effects of substance tested at 1.0 10^−6 M, 3.0 10^−6 M and 1.0 10^−5 M for agonist and antagonist activities at the σ receptors in the guinea pig vas deferens bioassay are summarized in Tables 6-7 where those of the reference compounds are also reported.

PDE5 = target: T3, PDE5 (Bos taurus, UniProt Q28156); assay: Selectivity: inhibition of PDE5 (radioenzymatic assay); assay type: biochemical, bovine; conditions: Table 2; 10 μM compound; read-out: PDE5 percentage inhibition at 10 μM
T3 construct: PDE3, PDE4 and PDE5 from vascular smooth muscle; from tissue; host or cells: bovine aortic media (vascular smooth muscle), DEAE-Sephacel fraction
Protocol: as §1, with “PDE2 was isolated from human platelets, provided by Etablissement Français du Sang-Alsace, according to Kameni Tcheudji J F et al., (J. Mol. Biol. 2001; 310: 181-791), and stored until use at −80° C. in small aliquots.” left out
as §2, with “The nucleoside formed was separated from the nucleotides by anion exchange chromatography.” left out, “Enzymatic incubations were carried out under conditions allowing no more than 15% hydrolysis of the substrate; each point was performed in duplicate.” left out
as §3

PDE1 = assay: Selectivity: inhibition of PDE1 (radioenzymatic assay); assay type: biochemical, bovine; conditions: Table 2; 10 μM compound
Protocol: as §1, with “PDE2 was isolated from human platelets, provided by Etablissement Français du Sang-Alsace, according to Kameni Tcheudji J F et al., (J. Mol. Biol. 2001; 310: 181-791), and stored until use at −80° C. in small aliquots.” left out
as §2, with “The nucleoside formed was separated from the nucleotides by anion exchange chromatography.” left out, “Enzymatic incubations were carried out under conditions allowing no more than 15% hydrolysis of the substrate; each point was performed in duplicate.” left out
as §3

PDE3 = target: T4, PDE3 (Bos taurus, UniProt A0A3Q1M1E8); assay: Selectivity: inhibition of PDE3 (radioenzymatic assay); assay type: biochemical, bovine; conditions: Table 2; 10 μM compound; read-out: PDE3 percentage inhibition at 10 μM
T4 sequence (A0A3Q1M1E8 1-1126): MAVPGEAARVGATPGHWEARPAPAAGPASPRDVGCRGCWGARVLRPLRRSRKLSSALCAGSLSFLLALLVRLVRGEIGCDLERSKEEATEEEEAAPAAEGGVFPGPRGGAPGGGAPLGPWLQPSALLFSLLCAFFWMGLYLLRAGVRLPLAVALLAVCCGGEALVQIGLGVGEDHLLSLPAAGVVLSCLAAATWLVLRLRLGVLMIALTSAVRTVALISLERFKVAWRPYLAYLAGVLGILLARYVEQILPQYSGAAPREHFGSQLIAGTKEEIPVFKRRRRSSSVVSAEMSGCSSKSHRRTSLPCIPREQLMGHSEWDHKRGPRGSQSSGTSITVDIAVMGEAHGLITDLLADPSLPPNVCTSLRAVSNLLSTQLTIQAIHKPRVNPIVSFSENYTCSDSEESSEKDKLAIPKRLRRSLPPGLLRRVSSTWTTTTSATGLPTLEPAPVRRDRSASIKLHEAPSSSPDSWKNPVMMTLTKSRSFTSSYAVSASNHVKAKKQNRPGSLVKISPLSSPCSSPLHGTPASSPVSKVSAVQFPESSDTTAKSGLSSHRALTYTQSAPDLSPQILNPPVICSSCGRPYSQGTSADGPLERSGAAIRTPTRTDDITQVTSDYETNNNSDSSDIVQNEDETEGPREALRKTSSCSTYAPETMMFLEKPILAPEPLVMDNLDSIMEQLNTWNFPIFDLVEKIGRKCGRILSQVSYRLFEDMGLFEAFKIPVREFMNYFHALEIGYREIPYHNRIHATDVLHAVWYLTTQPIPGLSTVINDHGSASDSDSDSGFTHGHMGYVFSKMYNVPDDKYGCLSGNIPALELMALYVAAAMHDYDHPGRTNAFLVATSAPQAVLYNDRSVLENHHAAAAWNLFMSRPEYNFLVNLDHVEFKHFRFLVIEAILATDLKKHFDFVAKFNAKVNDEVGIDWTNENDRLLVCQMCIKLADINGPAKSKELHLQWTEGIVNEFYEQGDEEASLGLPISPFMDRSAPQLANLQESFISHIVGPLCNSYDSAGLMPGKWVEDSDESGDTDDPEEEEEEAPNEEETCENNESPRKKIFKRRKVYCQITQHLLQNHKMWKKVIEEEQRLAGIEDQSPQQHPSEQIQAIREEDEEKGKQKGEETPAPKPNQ
Protocol: as §1, with “PDE2 was isolated from human platelets, provided by Etablissement Français du Sang-Alsace, according to Kameni Tcheudji J F et al., (J. Mol. Biol. 2001; 310: 181-791), and stored until use at −80° C. in small aliquots.” left out
as §2, with “The nucleoside formed was separated from the nucleotides by anion exchange chromatography.” left out, “Enzymatic incubations were carried out under conditions allowing no more than 15% hydrolysis of the substrate; each point was performed in duplicate.” left out
as §3

[1] = Table 1, read-out: PDE2 percentage inhibition at 10 μM

T1 sequence (P31645 whole entry): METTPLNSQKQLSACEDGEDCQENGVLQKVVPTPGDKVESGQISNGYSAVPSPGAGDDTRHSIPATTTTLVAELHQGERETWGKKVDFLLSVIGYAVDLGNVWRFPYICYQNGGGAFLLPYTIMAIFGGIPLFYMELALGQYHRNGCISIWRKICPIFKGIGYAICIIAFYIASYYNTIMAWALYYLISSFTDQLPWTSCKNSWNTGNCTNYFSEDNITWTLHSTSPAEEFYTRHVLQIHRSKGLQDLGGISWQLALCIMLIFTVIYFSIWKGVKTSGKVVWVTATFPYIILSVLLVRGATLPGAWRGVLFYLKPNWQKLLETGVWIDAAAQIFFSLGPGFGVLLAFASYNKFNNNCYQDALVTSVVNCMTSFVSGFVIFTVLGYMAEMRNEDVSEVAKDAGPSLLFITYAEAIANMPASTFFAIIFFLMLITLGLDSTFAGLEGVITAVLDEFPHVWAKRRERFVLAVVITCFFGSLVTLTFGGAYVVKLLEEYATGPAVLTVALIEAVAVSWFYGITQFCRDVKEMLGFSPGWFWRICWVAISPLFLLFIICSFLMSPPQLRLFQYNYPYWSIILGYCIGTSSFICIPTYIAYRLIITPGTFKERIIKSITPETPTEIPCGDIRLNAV
T2 sequence (O00408 whole entry): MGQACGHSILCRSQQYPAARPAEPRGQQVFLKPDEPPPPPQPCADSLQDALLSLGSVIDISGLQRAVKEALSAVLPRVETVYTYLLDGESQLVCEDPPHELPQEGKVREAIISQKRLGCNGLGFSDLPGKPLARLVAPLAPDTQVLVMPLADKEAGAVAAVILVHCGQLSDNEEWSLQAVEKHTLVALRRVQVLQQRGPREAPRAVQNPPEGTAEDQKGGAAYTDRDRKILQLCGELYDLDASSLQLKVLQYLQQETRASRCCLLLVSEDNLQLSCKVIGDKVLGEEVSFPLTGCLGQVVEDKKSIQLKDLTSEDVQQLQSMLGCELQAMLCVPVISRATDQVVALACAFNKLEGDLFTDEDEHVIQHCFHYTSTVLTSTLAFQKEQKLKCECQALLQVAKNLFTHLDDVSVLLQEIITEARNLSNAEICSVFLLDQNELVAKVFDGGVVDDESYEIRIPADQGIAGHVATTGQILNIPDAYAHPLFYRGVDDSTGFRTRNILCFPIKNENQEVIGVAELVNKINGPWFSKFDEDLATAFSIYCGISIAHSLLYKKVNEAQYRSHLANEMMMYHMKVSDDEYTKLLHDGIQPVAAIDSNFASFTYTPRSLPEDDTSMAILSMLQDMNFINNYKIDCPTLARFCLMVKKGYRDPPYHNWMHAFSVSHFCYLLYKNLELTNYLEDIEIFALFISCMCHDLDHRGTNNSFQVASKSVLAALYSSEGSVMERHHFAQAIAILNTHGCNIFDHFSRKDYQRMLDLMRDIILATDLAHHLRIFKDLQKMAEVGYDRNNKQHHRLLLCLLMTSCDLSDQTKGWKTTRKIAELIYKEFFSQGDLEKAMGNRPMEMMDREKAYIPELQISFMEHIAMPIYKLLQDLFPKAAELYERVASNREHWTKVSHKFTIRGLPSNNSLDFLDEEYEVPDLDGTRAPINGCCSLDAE

Row | Compound | inhibition at 10 µM (5-HT transporter) | inhibition at 10 µM (PDE2; [1]) | PDE4 percentage inhibition at 10 μM (PDE4) | IC50 (PDE2) | further results
1 | COc1cc2c(c(OC)c1-c1ccccc1)C(c1ccccc1)=NCC(=O)N2C [Compound 9, 6,8-Dimethoxy-1-methyl-5,7-diphenyl-1,3-dihydro-benzo[e][1,4]diazepin-2-one] | 1% | 71% | – | – | –
2 | COc1cc2c(c(OC)c1-c1cccnc1)C(c1cccc(C#N)c1)=NCC(=O)N2C [Compound 8, 3-(6,8-Dimethoxy-1-methyl-2-oxo-7-pyridin-3-yl-2,3-dihydro-1H-benzo[e][1,4]diazepin-5-yl)-benzonitrile] | 8% | – | – | – | inhibition at 10 µM (PDE2; read-out: PDE2 percentage inhibition at 10 μM, Table 1): 56%
3 | COc1cc2c(c(OC)c1-c1ccc(Cl)cc1)C(c1cccc(C#N)c1)=NCC(=O)N2C [Compound 7, 3-[7-(4-Chloro-phenyl)-6,8-dimethoxy-1-methyl-2-oxo-2,3-dihydro-1H-benzo[e][1,4]diazepin-5-yl]-benzonitrile] | 16% | 61% | 41% | 4600 nM | –
4 | C[C@@H]1CN(CCCn2c3ccccc3c3ccccc32)C[C@H](C)N1 [rimcazole] | – | – | – | – | Response to (+)SKF-10,047 (1.0 10^−4 M) in the presence of the compound (σ receptors; compound 1.0 10^−6 M): +111%; Response to (+)SKF-10,047 (1.0 10^−4 M) in the presence of the compound (σ receptors; compound 3.0 10^−6 M): +52%; Effect on the (+) SKF 10,047-induced enhancement of twitch contraction amplitude (in words) (σ receptors; field-stimulated guinea pig vas deferens): inhibited; Response to (+)SKF-10,047 (1.0 10^−4 M) in the presence of the compound (σ receptors; third (highest) concentration, printed 1.0 10^−6 M): −12%
5 | COCCCc1cccc(C2=NCC(=O)N(C)c3cc(OC)c(-c4ccccc4)c(OC)c32)c1 [Compound 29, 6,8-Dimethoxy-5-[3-(3-methoxy-propyl)-phenyl]-1-methyl-7-phenyl-1,3-dihydro-benzo[e][1,4]diazepin-2-one] | – | 91% | 49% | 800 nM | inhibition at 10 µM (PDE5): 19%; PDE1 percentage inhibition at 10 μM (PDE1): 31%; inhibition at 10 µM (PDE3): 40%
